In ChEMBL document CHEMBL4340516, “Synthesis and antitumor activity of novel steroidal imidazolium salt derivatives” (Eur J Med Chem, 2019):

Assays:
SMMC-7721 [1] = assay: Cell cycle arrest in human SMMC7721 cells assessed as accumulation of cells at G2/M phase at 0.5 uM after 24 hrs by propidium iodide staining-based flow cytometric analysis (reference value: 8.72 +/- 0.42%); type: functional
SMMC-7721 [2] = assay: Induction of apoptosis in human SMMC7721 cells assessed as late apoptotic cells at 2 uM after 48 hrs by annexin V-FITC/propidium iodide staining based flow cytometry (reference value: 3.05%); type: functional
SMMC-7721 [3] = assay: Cell cycle arrest in human SMMC7721 cells assessed as accumulation of cells at G0/G1 phase at 0.5 uM after 24 hrs by propidium iodide staining-based flow cytometric analysis (reference value: 62.58 +/- 0.35%); type: functional
SW480 = assay: Antiproliferative activity against human SW480 cells assessed as reduction in cell viability incubated for 48 hrs by MTS assay; type: functional, cell-based; settings: SW480, 48 h
SMMC-7721 [4] = assay: Cell cycle arrest in human SMMC7721 cells assessed as accumulation of cells at sub-G1 phase at 1 uM after 24 hrs by propidium iodide staining-based flow cytometric analysis (reference value: 2.33 +/- 0.17%); type: functional
SMMC-7721 [5] = assay: Cell cycle arrest in human SMMC7721 cells assessed as accumulation of cells at G0/G1 phase after 24 hrs by propidium iodide staining-based flow cytometric analysis; type: functional
SMMC-7721 [6] = assay: Cell cycle arrest in human SMMC7721 cells assessed as accumulation of cells at G0/G1 phase at 4 uM after 24 hrs by propidium iodide staining-based flow cytometric analysis (reference value: 62.58 +/- 0.35%); type: functional
SMMC-7721 [7] = assay: Induction of apoptosis in human SMMC7721 cells assessed as viable cells at 1 uM after 48 hrs by annexin V-FITC/propidium iodide staining based flow cytometry (reference value: 94.7%); type: functional; settings: SMMC-7721, 48 h, read-out: Activity
SMMC-7721 [8] = assay: Cell cycle arrest in human SMMC7721 cells assessed as accumulation of cells at G0/G1 phase at 1 uM after 24 hrs by propidium iodide staining-based flow cytometric analysis (reference value: 62.58 +/- 0.35%); type: functional
SMMC-7721 [9] = assay: Cell cycle arrest in human SMMC7721 cells assessed as accumulation of cells at G2/M phase at 1 uM after 24 hrs by propidium iodide staining-based flow cytometric analysis (reference value: 8.72 +/- 0.42%); type: functional
SMMC-7721 [10] = assay: Cell cycle arrest in human SMMC7721 cells assessed as accumulation of cells at S phase at 1 uM after 24 hrs by propidium iodide staining-based flow cytometric analysis (reference value: 24.5 +/- 0.05%); type: functional
SMMC-7721 [11] = assay: Induction of apoptosis in human SMMC7721 cells assessed as necrotic cells at 1 uM after 48 hrs by annexin V-FITC/propidium iodide staining based flow cytometry (reference value: 0.6%); type: functional
SMMC-7721 [12] = assay: Cell cycle arrest in human SMMC7721 cells assessed as accumulation of cells at G2/M phase at 4 uM after 24 hrs by propidium iodide staining-based flow cytometric analysis (reference value: 8.72 +/- 0.42%); type: functional
SMMC-7721 [13] = assay: Cell cycle arrest in human SMMC7721 cells assessed as accumulation of cells at G0/G1 phase at 2 uM after 24 hrs by propidium iodide staining-based flow cytometric analysis (reference value: 62.58 +/- 0.35%); type: functional
SMMC-7721 [14] = assay: Induction of apoptosis in human SMMC7721 cells assessed as early apoptotic cells at 1 uM after 48 hrs by annexin V-FITC/propidium iodide staining based flow cytometry (reference value: 1.68%); type: functional
SMMC-7721 [15] = assay: Cell cycle arrest in human SMMC7721 cells assessed as accumulation of cells at sub-G1 phase at 0.5 uM after 24 hrs by propidium iodide staining-based flow cytometric analysis (reference value: 2.33 +/- 0.17%); type: functional
SMMC-7721 [16] = assay: Induction of apoptosis in human SMMC7721 cells assessed as late apoptotic cells at 1 uM after 48 hrs by annexin V-FITC/propidium iodide staining based flow cytometry (reference value: 3.05%); type: functional
SMMC-7721 [17] = assay: Induction of apoptosis in human SMMC7721 cells assessed as viable cells at 2 uM after 48 hrs by annexin V-FITC/propidium iodide staining based flow cytometry (reference value: 94.7%); type: functional; settings: SMMC-7721, 48 h, read-out: Activity
SMMC-7721 [18] = assay: Induction of apoptosis in human SMMC7721 cells assessed as necrotic cells at 2 uM after 48 hrs by annexin V-FITC/propidium iodide staining based flow cytometry (reference value: 0.6%); type: functional
HL-60 = assay: Antiproliferative activity against human HL60 cells assessed as reduction in cell viability incubated for 48 hrs by MTS assay; type: functional, cell-based; settings: HL-60, 48 h
MCF7 = assay: Antiproliferative activity against human MCF7 cells assessed as reduction in cell viability incubated for 48 hrs by MTS assay; type: functional, cell-based; settings: MCF7, 48 h
SMMC-7721 [19] = assay: Cell cycle arrest in human SMMC7721 cells assessed as accumulation of cells at S phase at 0.5 uM after 24 hrs by propidium iodide staining-based flow cytometric analysis (reference value: 24.5 +/- 0.05%); type: functional
SMMC-7721 [20] = assay: Antiproliferative activity against human SMMC7721 cells assessed as reduction in cell viability incubated for 48 hrs by MTS assay; type: functional, cell-based; settings: SMMC-7721, 48 h
SMMC-7721 [21] = assay: Induction of apoptosis in human SMMC7721 cells assessed as early apoptotic cells at 2 uM after 48 hrs by annexin V-FITC/propidium iodide staining based flow cytometry (reference value: 1.68%); type: functional
A549 = assay: Antiproliferative activity against human A549 cells assessed as reduction in cell viability incubated for 48 hrs by MTS assay; type: functional, cell-based; settings: A549, 48 h
SMMC-7721 [22] = assay: Cell cycle arrest in human SMMC7721 cells assessed as accumulation of cells at S phase at 4 uM after 24 hrs by propidium iodide staining-based flow cytometric analysis (reference value: 24.5 +/- 0.05%); type: functional

IC50 (SW480): 790 nM
IC50 (HL-60): 490 nM
IC50 (MCF7): 730 nM
IC50 (SMMC-7721 [20]): 440 nM
IC50 (A549): 670 nM
SMILES: Cc1cc2c(cc1C)[n+](Cc1ccccc1Br)cn2[C@@H]1CC[C@@]2(C)C(=CC[C@H]3[C@@H]4C[C@@H]5O[C@]6(CC[C@@H](C)CO6)[C@@H](C)[C@@H]5[C@@]4(C)CC[C@@H]32)C1.[Br-]
Activity (SMMC-7721 [1]): 3.49%
Activity (SMMC-7721 [2]): 64.9%
Activity (SMMC-7721 [3]): 73.61%
Activity (SMMC-7721 [4]): 2.43%
Activity (SMMC-7721 [5]): Dose-dependent effect
Activity (SMMC-7721 [6]): 78.1%
viability at 1 µM (SMMC-7721 [7]): 79.6%
Activity (SMMC-7721 [8]): 78.1%
Activity (SMMC-7721 [9]): 4.67%
Activity (SMMC-7721 [10]): 14.22%
Activity (SMMC-7721 [11]): 1.27%
Activity (SMMC-7721 [12]): 4.67%
Activity (SMMC-7721 [13]): 73.61%
Activity (SMMC-7721 [14]): 0.373%
Activity (SMMC-7721 [15]): 2.4%
Activity (SMMC-7721 [16]): 18.7%
viability at 2 µM (SMMC-7721 [17]): 27.8%
Activity (SMMC-7721 [18]): 6.62%
Activity (SMMC-7721 [19]): 19.23%
Activity (SMMC-7721 [21]): 0.69%
Activity (SMMC-7721 [22]): 14.22%
